{
  "source": "patent US8809344B2",
  "about": "“Compounds, compositions, and methods for control of hepatitis C viral infections” (priority 2008, dated 2014)",
  "key": {"[1]": {"tested_on": "genotype 1b (Con1 strain) replicon with silent mutation at amino acid 1771", "experiment": "Silent-mutation reporter replicon IVT RNA in Huh7.5 cells", "format": "cell-based", "conditions": "Hepatitis C virus", "from_the_text": "(§1) To identify nucleotide changes that confer resistance to 80978, replicon RNA was reverse transcribed and amplified from total RNA extracted from 80978-resistant and control Clone A cells. […] One silent mutation at amino acid 1771 was also observed. Each mutation was introduced independently into a stable genotype 1b (Con1 strain) subgenomic reporter replicon plasmid via site-directed mutagenesis. […] The sequence of the wild type NS4B encoding sequence is provided as SEQ ID NO:1, the sequence of the mutated NS4B nucleotide sequence encoding the F1809V mutation is provided as SEQ ID NO:3, and the sequence of the mutated NS4B nucleotide sequence encoding the F1809L mutation is provided as SEQ ID NO:5. The sequence of the wild type NS4B protein is provided as SEQ ID NO:2, the sequence of the mutated NS4B protein with the F1809V mutation is provided as SEQ ID NO:4, and the sequence of the mutated NS4B nucleotide sequence encoding the F1809L mutation is provided as SEQ ID NO:6. […] A differential response was observed between cells electroporated with different replicon RNAs."}, "[2]": {"tested_on": "genotype 1b (Con1 strain) subgenomic replicon in 80978-resistant Clone A cells", "experiment": "80978-resistant Clone A cells, HCV RNA by quantitative RT-PCR", "format": "cell-based", "conditions": "Hepatitis C virus, 72 h", "protocol": "In an effort to gain insight into the target of 80978, Clone A cells were selected for resistance to 80978. Clone A cells are a human hepatoma cell line that contains a stable genotype 1b (Con1 strain) subgenomic replicon. Cells were cultured for 12 days in medium containing 10 μM 80978 and 1 mg/ml Geneticin™ (Invitrogen). Medium was changed every 3-4 days to replenish compound, and cells were split as needed to maintain subconfluent cultures. After 12 days of growth in the presence of 10 μM 80978, the concentration of 80978 was increased to 20 μM and cultured for an additional 19 days. Control Clone A cells were grown in parallel in the presence of diluent only. After this culture period, cells were evaluated for response to 80978.\nControl cells and cells that had been cultured in the presence of 80978 were treated in triplicate with 3-fold serial dilutions of compound for 72 hours. At the end of this incubation period, total RNA was extracted, and HCV RNA levels were measured by quantitative RT-PCR using primers that recognize the 3′NTR."}, "[3]": {"tested_on": "replicon RNA from 80978-resistant and control Clone A cells in Huh7b cells", "experiment": "Sensitivity of Huh7b cells electroporated with total RNA from resistant or control Clone A cells", "format": "cell-based, hepatitis C virus", "from_the_text": "To determine whether resistance was replicon-associated, total RNA was extracted from 80978-resistant and control cells and re-introduced via electroporation into naïve Huh7b cells, the parental cell line of Clone A cells. Electroporated cells that harbored replicon were selected with Geneticin™, pooled, and assayed for sensitivity to 80978."}, "[4]": {"tested_on": "genotype 1b (Con1 strain) replicon with NS4B S1949Y mutation", "experiment": "S1949Y mutant reporter replicon IVT RNA in Huh7.5 cells", "format": "cell-based", "conditions": "Hepatitis C virus", "from_the_text": "as §1"}, "[5]": {"tested_on": "stable genotype 1b (Con1 strain) subgenomic replicon", "experiment": "Log10 decrease in HCV replicon RNA in Clone VI cells, quantitative RT-PCR relative to GAPDH", "format": "cell-based, hepatitis C virus", "conditions": "20 μM compound, 72 hours", "protocol": "To quantify the effect of compound on HCV RNA replicon levels by measuring HCV replicon RNA levels, the Clone VI cell line, a human hepatoma cell line that contains a stable genotype 1b (Con1 strain) subgenomic replicon with the adaptive Ser1179Ile mutation was used (U.S. Pat. No. 7,049,428). Cells were seeded into 12-well plates (40,000 cells per well) in the absence of Geneticin™ (Invitrogen, Carlsbad, Calif., USA) and treated in triplicate four hours later with 20 μM compound, with a final DMSO percentage of 1% in a total volume of 1 ml. Total RNA was extracted 72 hours later, and HCV and GAPDH RNA levels were quantified via quantitative RT-PCR. The log 10 decrease in HCV RNA levels was quantified relative to GAPDH RNA levels using the comparative Ct (threshold cycle) method (Applied Biosystems, Foster City, Calif., USA).\nAdditional compounds of formula (I) shown in FIG. 1 were also shown to inhibit HCV RNA replication. The effects of various compounds of formula (I) on HCV RNA replicon levels were determined by measuring HCV replicon RNA levels in cells treated with various concentrations of the compounds. […] Total RNA was extracted 72 hours later, and HCV and GAPDH RNA levels were quantified via quantitative RT-PCR. […]"}, "[6]": {"tested_on": "parental genotype 1b (Con1 strain) subgenomic reporter replicon", "experiment": "Parental genotype 1b reporter replicon IVT RNA in Huh7.5 cells", "format": "cell-based", "conditions": "Hepatitis C virus", "from_the_text": "as §1"}, "[7]": {"tested_on": "genotype 1a replicon H/FL-Neo(L+I) (H77 strain)", "experiment": "Genotype 1a replicon in Huh7.5 cells, HCV RNA by blot hybridization", "format": "cell-based", "conditions": "Hepatitis C virus, Huh7.5, 72 h"}},
  "data": [
    {"smiles": "O=C(NCc1cccs1)c1nn2c(c1Cl)N[C@H](c1ccco1)C[C@@H]2C(F)(F)F", "note": "(single isomer, unassigned) [Compound 80978]", "values": [
      {"measurement": "EC50", "setting": "[1]", "result": 240, "unit": "nM"},
      {"measurement": "EC50", "setting": "[2]", "result": "> 25000", "unit": "nM"},
      {"measurement": "sensitivity to 80978", "setting": "[3]; Huh7b cells electroporated with total RNA from 80978-resistant cells", "result": "maintained resistance"},
      {"measurement": "sensitivity to 80978", "setting": "[3]; Huh7b cells electroporated with total RNA from control cells", "result": "sensitive"},
      {"measurement": "EC50", "setting": "[4]", "result": 410, "unit": "nM"},
      {"measurement": "Log RNA decrease at [μM]", "setting": "[5]", "result": "1.16 @ 20 μM"},
      {"measurement": "EC50", "setting": "[6]", "result": 290, "unit": "nM"},
      {"measurement": "EC50", "setting": "[7]", "result": 7800, "unit": "nM"}
    ]}
  ]
}
